Assay results taken from patent US20050043378A1, “LTA4H modulators” (priority 2003, published 2005).
Like-named read-outs stand apart in the source and are kept apart here.

How the values were obtained:
[1] = system: LTB4 production by calcium ionophore-stimulated murine blood; experiment: LTB4 production by calcium ionophore-stimulated murine blood for LTA4H inhibitor activity; type: cell-based, CD-1 mice
[2] = system: neutrophil influx (myeloperoxidase, MPO); experiment: Murine arachidonic acid-induced inflammation model: neutrophil influx (myeloperoxidase activity in ear biopsies); type: in vivo, female Balb/c mice; conditions: Mus musculus, 30 mg/kg oral gavage 60 min before topical arachidonic acid to ear, ear biopsies after 3 h, vs animals without inhibitor, read-out: % Inh. MPO
[3] = system: ex vivo stimulated LTB4 production in blood; experiment: Murine arachidonic acid-induced inflammation model: ex vivo stimulated LTB4 production; set-up: species or system female Balb/c mice; conditions: Mus musculus; 30 mg/kg oral gavage; blood taken 3 h after arachidonic acid, ex vivo A23187 stimulation; vs animals without inhibitor; read-out: % Inh. LTB4
[4] = target: T1, recombinant human LTA4 hydrolase (rhLTA4H) (Homo sapiens, UniProt P09960); experiment: Recombinant human LTA4 hydrolase assay for LTA4 hydrolase inhibitor activity; type: biochemical; conditions: LTA4 substrate, LTB4 by immunoassay, average of one to three determinations;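 also: enzyme expressed in Sf-9 insect cells, compound preincubated 10 min with enzyme, 10 min reaction at room temperature, uninhibited reaction as positive control, enzyme-free blank as negative control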
T1 construct: made in house; host or cells: Spodoptera frugiperda (Sf-9) cells, baculovirus (pFastBac1)
T1 sequence (P09960 1-611): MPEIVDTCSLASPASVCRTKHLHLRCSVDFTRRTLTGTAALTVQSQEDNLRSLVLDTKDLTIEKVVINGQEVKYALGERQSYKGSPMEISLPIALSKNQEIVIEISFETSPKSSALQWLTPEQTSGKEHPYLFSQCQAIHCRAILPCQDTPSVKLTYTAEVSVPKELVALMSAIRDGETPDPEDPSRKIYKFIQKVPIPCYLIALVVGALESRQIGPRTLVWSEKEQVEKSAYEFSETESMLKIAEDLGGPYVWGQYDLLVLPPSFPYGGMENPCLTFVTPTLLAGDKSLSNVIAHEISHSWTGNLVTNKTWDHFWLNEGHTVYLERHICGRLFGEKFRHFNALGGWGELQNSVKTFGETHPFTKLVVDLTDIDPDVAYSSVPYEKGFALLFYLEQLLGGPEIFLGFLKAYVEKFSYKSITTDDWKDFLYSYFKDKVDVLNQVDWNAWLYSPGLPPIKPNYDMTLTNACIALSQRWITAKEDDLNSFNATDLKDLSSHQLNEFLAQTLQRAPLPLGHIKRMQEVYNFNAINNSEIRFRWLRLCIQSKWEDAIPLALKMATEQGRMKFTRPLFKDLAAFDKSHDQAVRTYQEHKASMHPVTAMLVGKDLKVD

[5] = diluted CD-1 mouse whole blood, A23187 stimulation, LTB4 by immunoassay, read-out: IC50

SMILES | IC50 [1, 5] [nM] | inhibition in vivo at 30 mg/kg [2] [%] | IC50 ([1]; Mus musculus) [nM] | inhibition at 30 mg/kg [3] [%] | IC50 [4] [nM]
c1ccc2oc(Oc3ccc(OCCN4CCCCC4)cc3)nc2c1 [Example 11, 2-[4-(2-Piperidin-1-yl-ethoxy)-phenoxy]-benzooxazole] | 44 | 95 | – | – | –
OCC1CCN(CCOc2ccc(Oc3nc4ccccc4o3)cc2)CC1 [Example 13, (1-{2-[4-(Benzooxazol-2-yloxy)-phenoxy]ethyl}-piperidin-4-yl)-methanol] | 41 | – | – | – | –
OC1CCN(CCOc2ccc(Oc3nc4ccccc4o3)cc2)CC1 [Example 14, 1-{2-[4-(Benzooxazol-2-yloxy)-phenoxy]-ethyl}-piperidin-4-ol] | – | 56 | 89 | 81 | –
CN(C)CCOc1ccc(Oc2nc3ccccc3o2)cc1 [Example 46, {2-[4-(Benzooxazol-2-yloxy)-phenoxy]-ethyl}-dimethyl-amine] | 29 | – | – | – | 17
OC1CCN(CCc2ccc(Oc3nc4ccccc4o3)cc2)CC1 [Example 94, 1-{2-[4-(Benzooxazol-2-yloxy)-phenyl]-ethyl}-piperidin-4-ol] | 72 | – | – | – | 1
OC1CCN(CCc2ccc(Oc3nc4ccccc4[nH]3)cc2)CC1 [Example 127, 1-{2-[4-(1H-Benzoimidazol-2-yloxy)-phenyl]-ethyl}-piperidin-4-ol] | 376 | – | – | – | –
OCC1CCN(CCOc2ccc(Oc3nc4ccccc4[nH]3)cc2)CC1 [Example 133, (1-{2-[4-(1H-Benzoimidazol-2-yloxy)-phenoxy]-ethyl}-piperidin-4-yl)-methanol] | 290 | – | – | – | 111
OC1CCN(CCOc2ccc(Oc3nc4ccccc4[nH]3)cc2)CC1 [Example 134, 1-{2-[4-(1H-Benzoimidazol-2-yloxy)-phenoxy]-ethyl}-piperidin-4-ol] | 436 | – | – | – | 110
O=C(O)C1CCCCN1CCc1ccc(Oc2nc3ccccc3s2)cc1 (stereo not shown) [Example 156, 1-{2-[4-(Benzothiazol-2-yloxy)-phenyl]-ethyl}-piperidine-2-carboxylic acid] | 2000 | – | – | – | 7
OCC1CCCN(CCc2ccc(Oc3nc4ccccc4s3)cc2)C1 (stereo not shown) [Example 161, (1-{2-[4-(Benzothiazol-2-yloxy)-phenyl]-ethyl}-piperidin-3-yl)-methanol] | 100 | – | – | – | 1
OCCCN(CCc1ccc(Oc2nc3ccccc3s2)cc1)C1CC1 [Example 198, 3-({2-[4-(Benzothiazol-2-yloxy)-phenyl]-ethyl}-cyclopropyl-amino)-propan-1-ol] | 39 | – | – | – | –
O=C1C[C@H](O)CN1C1CCN(CCOc2ccc(Oc3nc4ccccc4s3)cc2)CC1 [Example 207, (S)-1-(1-{2-[4-(Benzothiazol-2-yloxy)-phenoxy]-ethyl}-piperidin-4-yl)-4-hydroxy-pyrrolidin-2-one] | 81 | – | – | – | 16
O=C(O)C1CCN(Cc2ccc(Oc3nc4ccccc4s3)cc2)CC1 [Example 250, 1-[4-(Benzothiazol-2-yloxy)-benzyl]-piperidine-4-carboxylic acid] | – | 94 | – | 80 | –
O=C1C[C@@H](O)CN1C1CCN(CCOc2ccc(Oc3nc4ccccc4s3)cc2)CC1 [Example 261, (R) 1-(1-{2-[4-(Benzothiazol-2-yloxy)-phenoxy]-ethyl}-piperidin-4-yl)-4-hydroxy-pyrrolidin-2-one] | 81 | – | – | – | 33
NC(=O)C1CCN(Cc2ccc(Oc3nc4ccccc4s3)cc2)CC1 [Example 274, 1-[4-(Benzothiazol-2-yloxy)-benzyl]-piperidine-4-carboxylic acid amide] | – | 87 | – | 93 | –
CCN(CCO)Cc1ccc(Oc2nc3ccccc3s2)cc1 [Example 287, 2-{[4-(Benzothiazol-2-yloxy)-benzyl]-ethyl-amino}-ethanol] | – | – | – | – | 28
OCCC1CCCCN1Cc1ccc(Oc2nc3ccccc3s2)cc1 (stereo not shown) [Example 288, 2-{1-[4-(Benzothiazol-2-yloxy)-benzyl]-piperidin-2-yl}-ethanol] | 57 | – | – | – | 4
CCN(CC)Cc1ccc(Oc2nc3ccccc3s2)cc1 [Example 294, [4-(Benzothiazol-2-yloxy)-benzyl]-diethyl-amine] | – | – | – | – | 6

SMILES | IC50 [1, 5] [nM] | inhibition in vivo at 30 mg/kg [2] [%] | IC50 ([1]; Mus musculus) [nM] | inhibition at 30 mg/kg [3] [%] | IC50 [4] [nM]
OCCC1CCN(Cc2ccc(Oc3nc4ccccc4s3)cc2)CC1 [Example 296, 2-{1-[4-(Benzothiazol-2-yloxy)-benzyl]-piperidin-4-yl}-ethanol] | 133 | – | – | – | 33
OCC1CCCCN1Cc1ccc(Oc2nc3ccccc3s2)cc1 (stereo not shown) [Example 298, {1-[4-(Benzothiazol-2-yloxy)-benzyl]-piperidin-2-yl}-methanol] | 69 | – | – | – | 15
OCC1CCCN(Cc2ccc(Oc3nc4ccccc4s3)cc2)C1 (stereo not shown) [Example 302, {1-[4-(Benzothiazol-2-yloxy)-benzyl]-piperidin-3-yl}-methanol] | 212 | – | – | – | 60
O=C(CO)N1CCN(CCc2ccc(Oc3nc4ccccc4s3)cc2)CC1 [Example 325, 1-(4-{2-[4-(Benzothiazol-2-yloxy)-phenyl]-ethyl}-piperazin-1-yl)-2-hydroxy-ethanone] | – | 67 | – | 76 | 12
O=C1C[C@@H](O)CN1C1CCN(CCc2ccc(Oc3nc4ccccc4s3)cc2)CC1 [Example 334, (R)-1-(1-{2-[4-(Benzothiazol-2-yloxy)-phenyl]-ethyl}-piperidin-4-yl)-4-hydroxy-pyrrolidin-2-one] | 453 | – | – | – | 100
OC1(c2ccccc2)CCN(Cc2ccc(Oc3nc4ccccc4s3)cc2)CC1 [Example 358, 1-[4-(Benzothiazol-2-yloxy)-benzyl]-4-phenyl-piperidin-4-ol] | – | – | – | – | 11
CS(=O)(=O)NC1CCN(Cc2ccc(Oc3nc4ccccc4s3)cc2)CC1 [Example 361, N-{1-[4-(Benzothiazol-2-yloxy)-benzyl]-piperidin-4-yl}-methanesulfonamide] | – | 90 | – | 86 | 8
COC(=O)NC1CCN(Cc2ccc(Oc3nc4ccccc4s3)cc2)CC1 [Example 363, {1-[4-(Benzothiazol-2-yloxy)-benzyl]-piperidin-4-yl}-carbamic acid methyl ester] | – | – | – | – | 4
O=C(O)CN1CCN(Cc2ccc(Oc3nc4ccccc4s3)cc2)CC1 [Example 366, {4-[4-(Benzothiazol-2-yloxy)-benzyl]-piperazin-1-yl}-acetic acid] | – | – | – | – | 39
OCCN(CCc1ccc(Oc2nc3ccccc3s2)cc1)CC1CC1 [Example 380, 2-({2-[4-(Benzothiazol-2-yloxy)-phenyl]-ethyl}-cyclopropylmethyl-amino)-ethanol] | 17 | – | – | – | 6
c1ccc2sc(Oc3ccc(CCN(CCCc4nn[nH]n4)C4CC4)cc3)nc2c1 [Example 389, {2-[4-(Benzothiazol-2-yloxy)-phenyl]-ethyl}-cyclopropyl-[3-(2H-tetrazol-5-yl)-propyl]-amine] | – | – | – | – | 2
O=C(O)CCCCCN(CCc1ccc(Oc2nc3ccccc3s2)cc1)C1CC1 [Example 419, 6-({2-[4-(Benzothiazol-2-yloxy)-phenyl]-ethyl}-cyclopropyl-amino)-hexanoic acid] | – | – | – | – | 4
CCN(CCCN1CCCC1=O)Cc1ccc(Oc2nc3ccccc3s2)cc1 [Example 437, 1-(3-{[4-(Benzothiazol-2-yloxy)-benzyl]-ethyl-amino}-propyl)-pyrrolidin-2-one] | 105 | – | – | – | 21
CCOC(=O)NC1CCN(Cc2ccc(Oc3nc4ccccc4s3)cc2)CC1 [Example 462, {1-[4-(Benzothiazol-2-yloxy)-benzyl]-piperidin-4-yl}-carbamic acid ethyl ester] | 144 | – | – | – | 27
CC(=O)N(C)C1CCN(Cc2ccc(Oc3nc4ccccc4s3)cc2)CC1 [Example 471, N-{1-[4-(Benzothiazol-2-yloxy)-benzyl]-piperidin-4-yl}-N-methyl-acetamide] | – | 89 | – | 90 | 19
NC(=S)NC1CCN(Cc2ccc(Oc3nc4ccccc4s3)cc2)CC1 [Example 479, {1-[4-(Benzothiazol-2-yloxy)-benzyl]-piperidin-4-yl}-thiourea] | – | – | – | – | 7
CCN(CC)CCOc1ccc(Oc2nc3ccccc3o2)cc1 [Example 484, {2-[4-(Benzooxazol-2-yloxy)-phenoxy]-ethyl}-diethyl-amine] | 11 | – | – | – | 19
CCOC(=O)C1CCN(CCOc2ccc(Oc3nc4ccccc4[nH]3)cc2)CC1 [Example 485, 1-{2-[4-(1H-Benzoimidazol-2-yloxy)-phenoxy]-ethyl}-piperidine-4-carboxylic acid ethyl ester] | – | – | – | – | 39
